{
  "source": "patent US12459951B2",
  "about": "“Compounds that interact with RAS superfamily proteins for treatment of cancers, inflammatory diseases, rasopathies, and fibrotic disease” (SHY Therapeutics, LLC, priority 2022, dated 2025)",
  "data": [
    {"tested_on": "MAPK p38 phosphorylation", "assay": "MAPK p38 Activation Assay (western blot), Panc-1", "type": "cell-based, human", "settings": "at 10 μM, Panc-1 pancreatic cancer cell line; starred symbols = activation", "experimental": "Protocol for MAPK p38 Activation Assay\nThis assay is referred to as the “MAPK p38 Activation Assay” throughout this application.\nCell lines: Human tumor-derived pancreatic cancer cell line Panc-1 (expressing KRas G12D mutant) was purchased from American Type Culture Collection and grown in complete DMEM-High Glucose medium, supplemented with penicillin (100 U/mL), streptomycin (100 μg/mL), and 10% heat-inactivated FBS at 37° C. in a humidified incubator with 5% CO2.\nMethod 1: Cells were plated at 350000 cells/well density in a 12-well plate, allowed 3 hours to adhere to the plate, then starved in the appropriate medium in the presence of 0.5% FBS overnight. The small molecules to be tested were added to the cells in the final concentration of 10 μM in the presence of 0.3% DMSO for 6 hours incubation at 37° C. For IC50 value determination, serial dilutions of compounds were added to cells under the same conditions. Next, cells were stimulated with 1.5 ng/ml EGF for 15 minutes then cells were lysed with lysis buffer containing 1% Triton X-100, EDTA, and Halt™ Protease & Phosphatase Inhibitor Cocktail (Thermo Scientific). Protein concentration was assessed by BCA protein assay (Thermo Scientific). Phosphorylation level of MAPK p38 was determined by western blot.\nMethod 2: Cells were plated at 350000 cells/well density in a 12-well plate in 10% FBS. The next day small molecules to be tested were added to the cells in the final concentration of 10 μM in the presence of 0.3% DMSO for 6 hours incubation at 37° C. For IC50 value determination, serial dilutions of compounds were added to cells under the same conditions. Next, cells were lysed with lysis buffer containing 1% Triton X-100, EDTA, and Halt™ Protease & Phosphatase Inhibitor Cocktail (Thermo Scientific). Protein concentration was assessed by BCA protein assay (Thermo Scientific). Phosphorylation level of MAPK p38 was determined by western blot.\nWestern blot protocol: Equal amounts of protein (15-50 μg) were separated by SDS-PAGE and transferred to nitrocellulose membranes (Invitrogen by Thermo Fisher Scientific). The membrane was stained with Ponceau S Stain (Boston BioProducts) to verify uniform protein loading. Membranes were blocked with 10% milk and phosphorylation levels of MAPK p38 were assessed by incubating overnight at 4° C. with the following antibody: Phospho-p38 MAPK (Thr180/Tyr182), from Cell Signaling Technology. Then the membranes were incubated with HRP-conjugated secondary antibody (Jackson Immunoresearch, West Grove, PA). Bands were incubated in Amersham ECL Prime Western Blotting Detection Reagent (GE Healthcare) and visualized using the ChemiDoc MP imaging system (Bio-Rad).", "values": [
      {"smiles": "COCC1CCN(c2nc(-c3ccccn3)nn3cc(-c4ccn(C(C)C)n4)c(C)c23)C1", "note": "(racemic) [Compound 10, rac 6-(1-Isopropyl-1H-pyrazol-3-yl)-4-(3-(methoxymethyl)pyrrolidin-1-yl)-5-methyl-2-(pyridin-2-yl)pyrrolo[2,1-f][1,2,4]triazine]", "% inh of MAPK p38 in Panc-1": "G* (G* = 75-99% activation)"},
      {"smiles": "COC[C@@H]1CC[C@@H]1CNc1nc(-c2ccccn2)nn2cc(-c3ccn(C(C)C)n3)c(C)c12", "note": "(racemic) [Compound 11, rac 6-(1-Isopropyl-1H-pyrazol-3-yl)-N-(((1S,2R)-2-(methoxymethyl)cyclobutyl)methyl)-5-methyl-2-(pyridin-2-yl)pyrrolo[2,1-f][1,2,4]triazin-4-amine]", "% inh of MAPK p38 in Panc-1": "G* (G* = 75-99% activation)"},
      {"smiles": "COC1CCCN(c2nc(-c3ccccn3)nn3cc(-c4ccn(C(C)C)n4)c(C)c23)C1", "note": "(racemic) [Compound 12, rac 6-(1-Isopropyl-1H-pyrazol-3-yl)-4-(3-methoxypiperidin-1-yl)-5-methyl-2-(pyridin-2-yl)pyrrolo[2,1-f][1,2,4]triazine]", "% inh of MAPK p38 in Panc-1": "H* (H* ≥ 100% activation)"},
      {"smiles": "CO[C@@H]1C[C@H]1Nc1nc(-c2nccn2C)nn2cc(-c3cccnc3)c(-c3ccccc3)c12", "note": "(racemic) [Compound 190, N-((1R,2R)-2-Methoxycyclopropyl)-2-(1-methyl-1H-imidazol-2-yl)-5-phenyl-6-(pyridin-3-yl)pyrrolo[2,1-f][1,2,4]triazin-4-amine]", "% inh of MAPK p38 in Panc-1": "E (E = 1-30% inhibition)"},
      {"smiles": "CO[C@H]1CC[C@@H](Nc2nc(-c3nccn3C)nn3cc(-c4cccnc4)c(-c4ccccc4)c23)C1", "note": "(racemic) [Compound 193, rac N-((1R,3S)-3-Methoxycyclopentyl)-2-(1-methyl-1H-imidazol-2-yl)-5-phenyl-6-(pyridin-3-yl)pyrrolo[2,1-f][1,2,4]triazin-4-amine]", "% inh of MAPK p38 in Panc-1": "E (E = 1-30% inhibition)"},
      {"smiles": "CO[C@H]1CC[C@H](Nc2nc(-c3nccn3C)nn3cc(-c4cccnc4)c(-c4ccccc4)c23)C1", "note": "(racemic) [Compound 194, rac N-((1S,3S)-3-Methoxycyclopentyl)-2-(1-methyl-1H-imidazol-2-yl)-5-phenyl-6-(pyridin-3-yl)pyrrolo[2,1-f][1,2,4]triazin-4-amine]", "% inh of MAPK p38 in Panc-1": "E (E = 1-30% inhibition)"},
      {"smiles": "CO[C@@H]1C[C@H]1Nc1nc(-c2nccn2C)nn2cc(-c3ccncc3)c(-c3ccccc3)c12", "note": "(racemic) [Compound 197, rac N-((1R,2R)-2-methoxycyclopropyl)-2-(1-methyl-1H-imidazol-2-yl)-5-phenyl-6-(pyridin-4-yl)pyrrolo[2,1-f][1,2,4]triazin-4-amine]", "% inh of MAPK p38 in Panc-1": "F (F = 31-74% inhibition)"},
      {"smiles": "CO[C@H]1CC[C@@H](Nc2nc(-c3nccn3C)nn3cc(-c4ccncc4)c(-c4ccccc4)c23)C1", "note": "(racemic) [Compound 200, rac N-((1R,3S)-3-Methoxycyclopentyl)-2-(1-methyl-1H-imidazol-2-yl)-5-phenyl-6-(pyridin-4-yl)pyrrolo[2,1-f][1,2,4]triazin-4-amine]", "% inh of MAPK p38 in Panc-1": "E (E = 1-30% inhibition)"},
      {"smiles": "CO[C@H]1CC[C@H](Nc2nc(-c3nccn3C)nn3cc(-c4ccncc4)c(-c4ccccc4)c23)C1", "note": "(racemic) [Compound 201, rac N-((1S,3S)-3-Methoxycyclopentyl)-2-(1-methyl-1H-imidazol-2-yl)-5-phenyl-6-(pyridin-4-yl)pyrrolo[2,1-f][1,2,4]triazin-4-amine]", "% inh of MAPK p38 in Panc-1": "E (E = 1-30% inhibition)"},
      {"smiles": "COc1cc(Nc2nc(-c3ccccn3)nn3cc(-c4ccn(C(C)C)n4)c(C)c23)ncn1", "note": "[Compound 13, 6-(1-Isopropyl-1H-pyrazol-3-yl)-N-(6-methoxypyrimidin-4-yl)-5-methyl-2-(pyridin-2-yl)pyrrolo[2,1-f][1,2,4]triazin-4-amine]", "% inh of MAPK p38 in Panc-1": "H* (H* ≥ 100% activation)"},
      {"smiles": "COc1cccc(Nc2nc(-c3ccccn3)nn3cc(-c4ccn(C(C)C)n4)c(C)c23)n1", "note": "[Compound 14, 6-(1-Isopropyl-1H-pyrazol-3-yl)-N-(6-methoxypyridin-2-yl)-5-methyl-2-(pyridin-2-yl)pyrrolo[2,1-f][1,2,4]triazin-4-amine]", "% inh of MAPK p38 in Panc-1": "H* (H* ≥ 100% activation)"},
      {"smiles": "COc1cccc(-c2cn3nc(-c4nccn4C)nc(O)c3c2C)c1Cl", "note": "[Compound 15, 6-(2-Chloro-3-methoxyphenyl)-5-methyl-2-(1-methyl-1H-imidazol-2-yl)pyrrolo[2,1-f][1,2,4]triazin-4-ol]", "% inh of MAPK p38 in Panc-1": "H* (H* ≥ 100% activation)"},
      {"smiles": "COCCNc1nc(-c2nccn2C)nn2cc(-c3cccc(OC)c3Cl)c(C)c12", "note": "[Compound 16, 6-(2-Chloro-3-methoxyphenyl)-N-(2-methoxyethyl)-5-methyl-2-(1-methyl-1H-imidazol-2-yl)pyrrolo[2,1-f][1,2,4]triazin-4-amine]", "% inh of MAPK p38 in Panc-1": "H* (H* ≥ 100% activation)"},
      {"smiles": "COc1ccnc(Nc2nc(-c3nccn3C)nn3cc(-c4ccn(CCN)n4)c(C)c23)c1", "note": "[Compound 187, 6-(1-(2-Aminoethyl)-1H-pyrazol-3-yl)-N-(4-methoxypyridin-2-yl)-5-methyl-2-(1-methyl-1H-imidazol-2-yl)pyrrolo[2,1-f][1,2,4]triazin-4-amine]", "% inh of MAPK p38 in Panc-1": "E* (E* = 1-30% activation)"},
      {"smiles": "COc1ccnc(Nc2nc(-c3nccn3CCN)nn3cc(-c4ccn(C)n4)c(C)c23)c1", "note": "[Compound 188, 2-(1-(2-Aminoethyl)-1H-imidazol-2-yl)-N-(4-methoxypyridin-2-yl)-5-methyl-6-(1-methyl-1H-pyrazol-3-yl)pyrrolo[2,1-f][1,2,4]triazin-4-amine]", "% inh of MAPK p38 in Panc-1": "E (E = 1-30% inhibition)"},
      {"smiles": "CO[C@H]1C[C@@H](Nc2nc(-c3nccn3C)nn3cc(-c4cccnc4)c(-c4ccccc4)c23)C1", "note": "[Compound 191, N-((1s,3s)-3-Methoxycyclobutyl)-2-(1-methyl-1H-imidazol-2-yl)-5-phenyl-6-(pyridin-3-yl)pyrrolo[2,1-f][1,2,4]triazin-4-amine]", "% inh of MAPK p38 in Panc-1": "E* (E* = 1-30% activation)"},
      {"smiles": "CO[C@H]1C[C@H](Nc2nc(-c3nccn3C)nn3cc(-c4cccnc4)c(-c4ccccc4)c23)C1", "note": "[Compound 192, N-((1r,3r)-3-Methoxycyclobutyl)-2-(1-methyl-1H-imidazol-2-yl)-5-phenyl-6-(pyridin-3-yl)pyrrolo[2,1-f][1,2,4]triazin-4-amine]", "% inh of MAPK p38 in Panc-1": "E* (E* = 1-30% activation)"},
      {"smiles": "COCCNc1nc(-c2nccn2C)nn2cc(-c3cccnc3)c(-c3ccccc3)c12", "note": "[Compound 195, N-(2-Methoxyethyl)-2-(1-methyl-1H-imidazol-2-yl)-5-phenyl-6-(pyridin-3-yl)pyrrolo[2,1-f][1,2,4]triazin-4-amine]", "% inh of MAPK p38 in Panc-1": "E* (E* = 1-30% activation)"},
      {"smiles": "COc1ccnc(Nc2nc(-c3nccn3C)nn3cc(-c4cccnc4)c(-c4ccccc4)c23)c1", "note": "[Compound 196, N-(4-Methoxypyridin-2-yl)-2-(1-methyl-1H-imidazol-2-yl)-5-phenyl-6-(pyridin-3-yl)pyrrolo[2,1-f][1,2,4]triazin-4-amine]", "% inh of MAPK p38 in Panc-1": "F (F = 31-74% inhibition)"},
      {"smiles": "CO[C@H]1C[C@@H](Nc2nc(-c3nccn3C)nn3cc(-c4ccncc4)c(-c4ccccc4)c23)C1", "note": "[Compound 198, N-((1s,3s)-3-Methoxycyclobutyl)-2-(1-methyl-1H-imidazol-2-yl)-5-phenyl-6-(pyridin-4-yl)pyrrolo[2,1-f][1,2,4]triazin-4-amine]", "% inh of MAPK p38 in Panc-1": "E (E = 1-30% inhibition)"},
      {"smiles": "CO[C@H]1C[C@H](Nc2nc(-c3nccn3C)nn3cc(-c4ccncc4)c(-c4ccccc4)c23)C1", "note": "[Compound 199, N-((1r,3r)-3-Methoxycyclobutyl)-2-(1-methyl-1H-imidazol-2-yl)-5-phenyl-6-(pyridin-4-yl)pyrrolo[2,1-f][1,2,4]triazin-4-amine]", "% inh of MAPK p38 in Panc-1": "E (E = 1-30% inhibition)"},
      {"smiles": "COCCNc1nc(-c2nccn2C)nn2cc(-c3ccncc3)c(-c3ccccc3)c12", "note": "[Compound 202, N-(2-Methoxyethyl)-2-(1-methyl-1H-imidazol-2-yl)-5-phenyl-6-(pyridin-4-yl)pyrrolo[2,1-f][1,2,4]triazin-4-amine]", "% inh of MAPK p38 in Panc-1": "E (E = 1-30% inhibition)"},
      {"smiles": "CO[C@H]1C[C@H](Nc2nc(-c3nccn3C)nn3cc(-c4ccccc4)c(-c4ccccc4)c23)C1", "note": "[Compound 203, N-((1r,3r)-3-Methoxycyclobutyl)-2-(1-methyl-1H-imidazol-2-yl)-5,6-diphenylpyrrolo[2,1-f][1,2,4]triazin-4-amine]", "% inh of MAPK p38 in Panc-1": "G (G = 75-99% inhibition)"}
    ]}
  ]
}
